Our source for the pKa values is ChEMBL document CHEMBL1130657, “Synthesis of novel fluorinated coumarins: excellent UV-light excitable fluorescent dyes” (Bioorg Med Chem Lett, 1998).

Each structure is given as a SMILES string.

The nature of this data set: Photostability, pKa was evaluated. The format is physicochemical.
Regarding `CCOC(=O)c1cc2cc(F)c(O)c(F)c2oc1=O`, the pKa came to 3.8.
Under `O=C(O)c1cc2cc(F)c(O)c(F)c2oc1=O` stands 3.7; under `Cc1c(CC(=O)O)c(=O)oc2c(F)c(O)c(F)cc12`, 4.7; under `Cc1cc(=O)oc2c(F)c(O)ccc12`, 6.4.
For `O=C(O)c1cc2ccc(O)cc2oc1=O` the value was 7.5.
